US20090036455A1, “ARYLPIPERAZINE DERIVATIVE AND USE THEREOF AS 5-HT1A RECEPTOR LIGANDS” (CEPA SCHWARZ PHARMA, S.L., priority 2004, published 2009)
Where a name gives a salt, the structure may show the parent alone. Read-outs that look alike come from different tables or passages of the source.

Experiments:
5-HT1A receptor = target: T1, 5-HT1A receptor (Rattus norvegicus, UniProt P19327); test: Radioligand binding assay, 5-HT1A receptor ([3H]-8-OH-DPAT, rat cerebral cortex membranes); details: for binding to the 5-HT1A receptor (in words): see table 1
T1 construct: The cerebral cortex was homogenized in 10 volumes of ice-cold Tris buffer; from tissue; host or cells: rat cerebral cortex membranes
T1 sequence (P19327 1-422): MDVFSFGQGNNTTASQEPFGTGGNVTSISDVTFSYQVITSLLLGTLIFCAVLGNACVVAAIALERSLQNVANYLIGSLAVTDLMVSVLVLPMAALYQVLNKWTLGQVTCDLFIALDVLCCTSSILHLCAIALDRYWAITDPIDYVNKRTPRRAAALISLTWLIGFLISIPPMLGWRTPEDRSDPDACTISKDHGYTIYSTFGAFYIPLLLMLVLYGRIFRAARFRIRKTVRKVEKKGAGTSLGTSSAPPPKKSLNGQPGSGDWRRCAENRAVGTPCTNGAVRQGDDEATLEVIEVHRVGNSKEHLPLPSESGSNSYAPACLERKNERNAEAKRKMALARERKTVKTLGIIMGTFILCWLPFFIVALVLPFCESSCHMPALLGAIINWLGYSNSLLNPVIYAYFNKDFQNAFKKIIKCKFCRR
Protocol: (§1) For all receptor binding assays, male Sprague-Dawley rats (Rattus norvegicus albinus), weighing 180-200 g, were killed by decapitation and the brains rapidly removed and dissected. Tissues were stored at −80° C. for subsequent use and homogenized on a Polytron PT-10 homogenizer. Membrane suspensions were centrifuged on a Beckman J2-HS instrument.
The cerebral cortex was homogenized in 10 volumes of ice-cold Tris buffer (50 mM Tris-HCl, pH 7.7 at 25° C.) and centrifuged at 28000 g for 15 min. The membrane pellet was washed twice by resuspension and centrifugation. After the second wash the resuspended pellet was incubated at 37° C. for 10 min. Membranes were then collected by centrifugation and the final pellet was resuspended in 50 mM Tris-HCl, 5 mM MgSO4, and 0.5 mM EDTA buffer (pH 7.4 at 37° C.). Fractions of 100 μL of the final membrane suspension (about 1 mg of protein) were incubated at 37° C. for 15 min with 0.6 nM [^3]-8-OH-DPAT (133 Ci/mmol), in the presence or absence of the competing drug, in a final volume of 1.1 mL of assay buffer (50 mM Tris-HCl, 10 nM clonidine, 30 nM prazosin, pH 7.4 at 37° C.). Nonspecific binding was determined with 10 μM 5-HT.
(§2) For all binding assays, competing drug, nonspecific, total and radioligand bindings were defined in triplicate. Incubation was terminated by rapid vacuum filtration through Whatman GF/B filters, presoaked in 0.05% poly(ethylenimine), using a Brandel cell harvester. The filters were then washed with the assay buffer, dried and placed in poly(ethylene) vials to which were added 4 mL of a scintillation cocktail (Aquasol). The radioactivity bound to the filters was measured by liquid scintillation spectrometry. The data were analyzed by an iterative curve-fitting procedure (program Prism, Graph Pad), which provided IC50, Ki, and r^2 values for test compounds, Ki values being calculated from the Cheng and Prusoff equation. The protein concentrations of the rat cerebral cortex and the rat striatum were determined by the method of Lowry, using bovine serum albumin as the standard.

α1 adrenoceptor = test: Radioligand binding assay, α1 adrenoceptor ([3H]prazosin, rat cerebral cortex membranes); details: for percent value (α1) / Ki: rat cerebral cortex membranes; for percent value (α1): [3H]prazosin, footnote to * not given; for Ki: 0.2 nM [3H]prazosin, hydrochloride salts, read-out: Ki ± SEM (α1); for binding to the α1 adrenoceptor (in words): see table 1
Protocol: as §1
The cerebral cortex was homogenized in 20 volumes of ice-cold buffer (50 mM Tris-HCl, 10 mM MgCl2, pH 7.4 at 25° C.) and centrifuged at 30000 g for 15 min. Pellets were washed twice by resuspension and centrifugation. Final pellets were resuspended in the same buffer. Fractions of the final membrane suspension (about 250 μg of protein) were incubated at 25° C. for 30 min with 0.2 nM [^3H]prazosin (23 Ci/mmol), in the presence or absence of six concentrations of the competing drug, in a final volume of 2 mL of buffer. Nonspecific binding was determined with 10 μM phentolamine.
as §2

[1] = rat cerebral cortex membranes, 0.6 nM [3H]-8-OH-DPAT, hydrochloride salts, read-out: Ki ± SEM (5-HT1A)

Ki (5-HT1A receptor; [1]) [nM] | percent value (α1) (α1 adrenoceptor) [%*] | Ki (α1 adrenoceptor) [nM] | also measured | Compound
21.9 ± 5.1 | 56 |  |  | COc1cccc(N2CCN(CCCN3C(=O)C4CCCN4C3=O)[C@@H](C)C2)c1 (mixture of isomers) [(j), (2S,7aRS)-(+)-2-[3-[4-(3-Methoxyphenyl)-2-methylpiperazin-1-yl]propyl]-1,3-dioxoperhydropyrrolo[1,2-c]imidazole]
11.7 ± 3.4 | 76 |  |  | C[C@@H]1CN(c2cccc(Cl)c2)CCN1CCCN1C(=O)C2CCCN2C1=O (mixture of isomers) [(i), (2R,7aRS)-(−)-2-[3-[4-(3-Chlorophenyl)-2-methylpiperazin-1-yl]propyl]-1,3-dioxoperhydropyrrolo[1,2-c]imidazole]
4.1 ± 0.3 |  | > 1000 |  | C[C@H]1CN(c2cccc3nc[nH]c23)CCN1CCCCN1C(=O)C2CCCN2C1=O (mixture of isomers) [(r), (2S,7aRS)-(+)-2-[4-[4-(Benzimidazol-4-yl)-2-methylpiperazin-1-yl]butyl]-1,3-dioxoperhydropyrrolo[1,2-c]imidazole]
6.4 ± 0.1 |  | > 1000 |  | C[C@H]1CN(c2cccc3ccccc23)CCN1CN1CC(=O)N2CCC[C@@H]2C1=O [(f), (2S,8aR)-2-[[4-(Naphth-1-yl)-2-methylpiperazin-1-yl]methyl]-1,4-dioxoperhydropyrrolo[1,2-a]pyrazine]
22.1 ± 0.1 | 62 |  |  | C[C@H]1CN(c2ccccc2)CCN1CCCCN1C(=O)C2CCCN2C1=O (mixture of isomers) [(q), (2S,7aRS)-(+)-2-[4-[2-Methyl-4-phenylpiperazin-1-yl]butyl]-1,3-dioxoperhydropyrrolo[1,2-c]imidazole]
6.3 ± 0.2 |  | > 1000 |  | C[C@@H]1CN(c2cccc3ccccc23)CCN1CN1CC(=O)N2CCC[C@H]2C1=O [(e), (2R,8aS)-2-[[4-(Naphth-1-yl)-2-methylpiperazin-1-yl]methyl]-1,4-dioxoperhydropyrrolo[1,2-a]pyrazine]
2.5 ± 0.1 |  | > 1000 |  | C[C@H]1CN(c2cccc3ccccc23)CCN1CN1CC(=O)N2CCC[C@H]2C1=O [(d), (2S,8aS)-2-[[4-(Naphth-1-yl)-2-methylpiperazin-1-yl]methyl]-1,4-dioxoperhydropyrrolo[1,2-a]pyrazine]
4.2 ± 0.9 |  | 20.1 ± 0.8 |  | C[C@@H]1CN(c2cccc3ccccc23)CCN1CCCCN1CC(=O)N2CCCC2C1=O (mixture of isomers) [(a), (2R, 8aRS)-2-[4-[4-(Naphth-1-yl)-2-methylpiperazin-1-yl]butyl]-1,4-dioxoperhydropyrrolo[1,2-a]pyrazine]
0.5 ± 0.2 |  | 8 ± 1.7 | binding to the 5-HT1A receptor (in words) (5-HT1A receptor): picomolar range; binding to the α1 adrenoceptor (in words) (α1 adrenoceptor): low nanomolar range | O=C1C2CCCN2C(=O)CN1CCCCN1CCN(c2cccc3ccccc23)CC1 (centres unmarked) [Compound (g), 2-[4-[4-(Naphth-1-yl)piperazin-1-yl]butyl]-1,4-dioxoperhydropyrrolo[1,2-a]pyrazine]
9.5 ± 2.2 |  | > 1000 |  | C[C@@H]1CN(c2cccc3ccccc23)CCN1CN1CC(=O)N2CCC[C@@H]2C1=O [(c), (2R,8aR)-2-[[4-(Naphth-1-yl)-2-methylpiperazin-1-yl]methyl]-1,4-dioxoperhydropyrrolo[1,2-a]pyrazine]
2.3 ± 0.3 |  | > 1000 |  | C[C@@H]1CN(c2cccc3nc[nH]c23)CCN1CCCCN1C(=O)C2CCCN2C1=O (mixture of isomers) [(m), (2R,7aRS)-(−)-2-[4-[4-(Benzimidazol-4-yl)-2-methylpiperazin-1-yl]butyl]-1,3-dioxoperhydropyrrolo[1,2-c]imidazole]
6.7 ± 0.5 | 64 |  |  | C[C@H]1CN(c2cccc3ccoc23)CCN1CCCN1C(=O)C2CCCN2C1=O (mixture of isomers) [(k), (2S,7aRS)-(−)-2-[3-[4-(1-Benzofuran-7-yl)-2-methylpiperazin-1-yl]propyl]-1,3-dioxoperhydropyrrolo[1,2-c]imidazole]
1.6 ± 0.4 | 75 |  |  | C[C@H]1CN(c2cccc3ccoc23)CCN1CCCCN1C(=O)[C@@H]2CCCN2C1=O [(n), (2S,7aS)-(+)-2-[4-[4-(1-Benzofuran-7-yl)-2-methylpiperazin-1-yl]butyl]-1,3-dioxoperhydropyrrolo[1,2-c]imidazole]
 |  |  | melting point: 212 to 213 °C (dec.) | O=C1C2CCCN2C(=O)CN1CCCCN1CCN(c2cccc3c2OCCCO3)CC1 (centres unmarked) (as salt: hydrochloride) [Compound (h), 2-[4-[4-(3,4-Dihydro-2H-1,5-benzodioxepin-6-yl)piperazin-1-yl]butyl]-1,4-dioxoperhydropyrrolo[1,2-a]pyrazine]
21 ± 3 | 64 |  |  | CC[C@@H]1CN(c2cccc(OC)c2)CCN1CCCCN1C(=O)C2CCCN2C1=O (mixture of isomers) [(o), (2R,7aRS)-(−)-2-[4-[2-Ethyl-4-(3-methoxyphenyl)piperazin-1-yl]butyl]-1,3-dioxoperhydropyrrolo[1,2-c]imidazole]
3.1 ± 0.9 |  | 348 ± 21 | binding to the 5-HT1A receptor (in words) (5-HT1A receptor): low nanomolar range; binding to the α1 adrenoceptor (in words) (α1 adrenoceptor): nanomolar range | O=C1C2CCCN2C(=O)CN1CCCCN1CCN(c2cccc3c2OCCCO3)CC1 (centres unmarked) [Compound (h), 2-[4-[4-(3,4-Dihydro-2H-1,5-benzodioxepin-6-yl)piperazin-1-yl]butyl]-1,4-dioxoperhydropyrrolo[1,2-a]pyrazine]
 | 66 |  | percent value marked * in column Ki ± SEM (5-HT1A) (5-HT1A receptor; rat cerebral cortex membranes, [3H]-8-OH-DPAT, footnote to * not given): 87%* | C[C@H]1CN(c2ccc([N+](=O)[O-])c3ccccc23)CCN1CCCCN1C(=O)C2CCCN2C1=O (mixture of isomers) [(s), (2S,7aRS)-(+)-2-[4-[2-Methyl-4-(4-nitronaphth-1-yl)piperazin-1-yl]butyl]-1,3-dioxoperhydropyrrolo[1,2-c]imidazole]
 |  |  | melting point: 277 to 280 °C (dec.) | O=C1C2CCCN2C(=O)CN1CCCCN1CCN(c2cccc3ccccc23)CC1 (centres unmarked) (as salt: hydrochloride) [Compound (g), 2-[4-[4-(Naphth-1-yl)piperazin-1-yl]butyl]-1,4-dioxoperhydropyrrolo[1,2-a]pyrazine]
15.3 ± 1.8 |  | 34.4 ± 1.2 |  | C[C@H]1CN(c2cccc3ccccc23)CCN1CCCCN1CC(=O)N2CCCC2C1=O (mixture of isomers) [(b), (2S, 8aRS)-2-[4-[4-(Naphth-1-yl)-2-methylpiperazin-1-yl]butyl]-1,4-dioxoperhydropyrrolo[1,2-a]pyrazine]
 | 75 |  | Ki (5-HT1A receptor): 15.3 ± 0.8 nM | Cc1ccc(N2CCN(CCCCN3C(=O)C4CCCN4C3=O)[C@@H](C)C2)c2ccccc12 (mixture of isomers) [(p), (2S,7aRS)-(+)-2-[4-[2-Methyl-4-(4-methylnaphth-1-yl)piperazin-1-yl]butyl]-1,3-dioxoperhydropyrrolo[1,2-c]imidazole]
2.4 ± 0.3 | 87 |  |  | CC[C@@H]1CN(c2cccc3ccccc23)CCN1CCCCN1C(=O)C2CCCN2C1=O (mixture of isomers) [(l), (2R,7aRS)-(−)-2-[4-[2-Ethyl-4-(naphth-1-yl)piperazin-1-yl]butyl]-1,3-dioxoperhydropyrrolo [1,2-c]imidazole]
